In ChEMBL document CHEMBL3885881, “DrugMatrix”:

What was measured:
Rattus norvegicus [1] = species: Rattus norvegicus; format: toxicity, organism-based, Sprague-Dawley; conditions: in vivo, po, 75 mg/kg, 24 h, route oral GAVAGE, dose level High, time 1 day, vehicle .5 % CMC
Description: DrugMatrix - Regimen: Single

Rattus norvegicus [2] = species: Rattus norvegicus; assay: DrugMatrix - Regimen: Daily Repeat; format: toxicity, organism-based, Sprague-Dawley; set-up: regimen Daily Repeat, gender Male, age 6-8 weeks; conditions: in vivo, po, 75 mg/kg, 72 h, route oral GAVAGE, dose level High, time 3 day, vehicle .5 % CMC

## Nc1ccc(Cl)cc1 [4-CHLOROANILINE]
Rattus norvegicus [1]; tissue Blood
  ABSOLUTE EOSINOPHIL: 269 CELLS/uL
  ABSOLUTE LYMPHOCYTE: 17566.67 CELLS/uL
  ABSOLUTE MONOCYTE: 600.33 CELLS/uL
  ABSOLUTE SEGMENTED NEUTROPHIL: 3397.33 CELLS/uL
  BASOPHIL: 0%
  EOSINOPHIL: 1.33%
  ERYTHROCYTE COUNT: 5.88 x10E6/uL
  HEMATOCRIT: 36.53%
  HEMOGLOBIN: 13.03 G/DL
  LEUKOCYTE COUNT: 21.83 x10E3/uL
  LYMPHOCYTE: 81.67%
  MEAN CORPUSCULAR HEMOGLOBIN: 22.17 pg
  MEAN CORPUSCULAR HEMOGLOBIN CONCENTRATION: 35.7 G/DL
  MEAN CORPUSCULAR VOLUME: 62.13 fL
  MONOCYTE: 2.67%
  NEUTROPHIL: 14.33%
  NUCLEATED RED BLOOD CELLS: 0 /100WBC
  PLATELET COUNT: 950.67 x10E3/uL
Rattus norvegicus [1]; tissue Plasma
  ALANINE AMINOTRANSFERASE: 53 u/L
  ALBUMIN: 4.37 G/DL
  ALKALINE PHOSPHATASE: 533.33 u/L
  ASPARTATE AMINOTRANSFERASE: 101 u/L
  BLOOD UREA NITROGEN: 13.67 mg/dL
  CARBON DIOXIDE: 25.67 mmol/L
  CHLORIDE: 102.33 MEQ/L
  CHOLESTEROL: 75.33 mg/dL
  CREATININE: 0.19 mg/dL
  GLUCOSE: 168 mg/dL
  LACTATE DEHYDROGENASE: 480 u/L
  LIPASE: 9.67 u/L
  PHOSPHORUS: 13.93 mg/dL
  POTASSIUM: 6.69 MEQ/L
  SODIUM: 146.3 MEQ/L
  TOTAL BILIRUBIN: 0.23 mg/dL
  TOTAL PROTEIN: 6.3 G/DL
  URIC ACID: 2.2 mg/dL
Rattus norvegicus [2]; tissue Blood
  ABSOLUTE BASOPHIL: 0 CELLS/uL
  ABSOLUTE EOSINOPHIL: 340 CELLS/uL
  ABSOLUTE LYMPHOCYTE: 18564 CELLS/uL
  ABSOLUTE MONOCYTE: 396 CELLS/uL
  ABSOLUTE SEGMENTED NEUTROPHIL: 3900 CELLS/uL
  BASOPHIL: 0%
  EOSINOPHIL: 1.67%
  ERYTHROCYTE COUNT: 5.42 x10E6/uL
  HEMATOCRIT: 35.1%
  HEMOGLOBIN: 13.57 G/DL
  LEUKOCYTE COUNT: 27.87 x10E3/uL
  LYMPHOCYTE: 79.33%
  MEAN CORPUSCULAR HEMOGLOBIN: 25.13 pg
  MEAN CORPUSCULAR HEMOGLOBIN CONCENTRATION: 38.77 G/DL
  MEAN CORPUSCULAR VOLUME: 64.77 fL
  MONOCYTE: 1.67%
  NEUTROPHIL: 17.33%
  NUCLEATED RED BLOOD CELLS: 1 /100WBC
  PLATELET COUNT: 1129 x10E3/uL
Rattus norvegicus [2]; tissue Plasma
  ALANINE AMINOTRANSFERASE: 48.33 u/L
  ALBUMIN: 4.23 G/DL
  ALKALINE PHOSPHATASE: 297 u/L
  ASPARTATE AMINOTRANSFERASE: 88.67 u/L
  BLOOD UREA NITROGEN: 14.67 mg/dL
  CARBON DIOXIDE: 26.67 mmol/L
  CHLORIDE: 104 MEQ/L
  CHOLESTEROL: 52.67 mg/dL
  CREATININE: 0.27 mg/dL
  GLUCOSE: 226.33 mg/dL
  LACTATE DEHYDROGENASE: 200 u/L
  LIPASE: 9.67 u/L
  PHOSPHORUS: 13.43 mg/dL
  POTASSIUM: 6.55 MEQ/L
  SODIUM: 147 MEQ/L
  TOTAL BILIRUBIN: 0.23 mg/dL
  TOTAL PROTEIN: 6.3 G/DL
  URIC ACID: 2.03 mg/dL
